For assay [1], the target named is Recombinant human GST-tagged Kat6b protein (431-end). The experiment in a line: Kat6b activity assay (TR-FRET, acetylation of biotinylated Histone-H4-derived peptide). The assay is classed as biochemical. The following applies: 30 mins at 22° C., read-out: KAT6B activity assay IC50 [mol/l] (arithmetic mean). As to the method: Kat6b inhibitory activities of the compounds described in the present invention were quantified using a Fluorescence Resonance Energy Transfer (TR-FRET) assay which measures acetylation of a synthetic, biotinylated Histone-H4-derived peptide by the enzyme.
In this case 50 nl DMSO were used instead of compounds. […] IC50 values were determined by regression analysis based on a 4 parameter equation (minimum, maximum, ICM, Hill; Y=Max+(Min−Max)/(1+(X/ICso) Hill) using the Screener Software (Genedata).
(In general: In TR-FRET formats the signal depends on donor and acceptor labels being close together.)

Assay [2] relates to ESR1 transcription (luciferase signal in MVLN cells). As to the kind of experiment: Repression of ESR1 transcription, luciferase reporter in MVLN cells. The assay is classed as cell-based. To be noted: inhibition of luciferase signal in MVLN cells, arithmetic mean. In a few lines:
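MVLN cells (constitutive ER, stably carrying a Vitellogenin A2 hormone-responsive element–luciferase reporter) treated in duplicate; luciferase read after 24 h. Cell density checked by Alamar Blue fluorescence (530/590 nm) after 2 h to exclude cell-loss effects.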
(A reporter such as luciferase makes a cellular process visible.)

Assay [3] deals with Recombinant human His-tagged Kat6a protein (amino acids 194-810) (Homo sapiens (Human), UniProt Q92794). As to the kind of experiment: Kat6a activity assay (TR-FRET, acetylation of biotinylated Histone-H4-derived peptide). Type of assay: biochemical. The following applies: 60 mins at 22° C., read-out: KAT6A-DPF/HAT domain IC50 [mol/l] (arithmetic mean). The method, boiled down:
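Sf9-expressed human His-Kat6a (aa 194-810) incubated 60 min at 22 °C with compounds (0.01-20 μM) in Tris pH 8 buffer containing 220 nM biotinylated H4 peptide (aa 1-24) and 600 nM acetyl-CoA. Acetyl-K8 detected by TR-FRET (665/620 nm ratio); IC50 by four-parameter fit versus DMSO controls.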

For the next assay, the system named is MDA-MB-436 cells. As to the kind of experiment: Proliferation assay MDA-MB-436, negative control cell line (Alamar Blue, 144 h). The assay is classed as cell-based. To be noted: arithmetic mean. In a few lines:
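MDA-MB-436 cells (3000/well, DMEM/Ham's F12 with 2.5% FBS) treated 24 h after plating with compounds at 2.0×10E-5 to 2.0×10E-9 M (9 dilutions, 0.2% DMSO), triplicates, 144 h at 37 °C, 5% CO2. Viability by Alamar Blue, 2 h, fluorescence at 590 nm.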

The test system of the next assay is ZR-75-1 cells. As to the kind of experiment: Proliferation assay ZR-75-1 (Alamar Blue, 144 h). Type of assay: cell-based. To be noted: arithmetic mean, read-out: ZR75-1 proliferation assay, EC50 [M] (arithmetic mean). The method, boiled down: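 Cells seeded at 3000/well in RPMI 1640 with 2.5% FBS and treated 24 h later across 2.0×10E-5 to 2.0×10E-9 M (9 dilutions, 0.2% DMSO, triplicate). After 144 h at 37 °C, 5% CO2, viability read by Alamar Blue fluorescence at 590 nm following 2 h reagent incubation.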
On the technique in general: Resazurin is reduced to fluorescent resorufin, in cell work by metabolically active cells.

Where [4] appears, read: Homo sapiens, MDA-MB-436, 144 h.

The structures appear in SMILES notation. Read-outs that look alike come from different tables or passages of the source.

Chain of Recombinant human His-tagged Kat6a protein (amino acids 194-810) (Q92794 194-810): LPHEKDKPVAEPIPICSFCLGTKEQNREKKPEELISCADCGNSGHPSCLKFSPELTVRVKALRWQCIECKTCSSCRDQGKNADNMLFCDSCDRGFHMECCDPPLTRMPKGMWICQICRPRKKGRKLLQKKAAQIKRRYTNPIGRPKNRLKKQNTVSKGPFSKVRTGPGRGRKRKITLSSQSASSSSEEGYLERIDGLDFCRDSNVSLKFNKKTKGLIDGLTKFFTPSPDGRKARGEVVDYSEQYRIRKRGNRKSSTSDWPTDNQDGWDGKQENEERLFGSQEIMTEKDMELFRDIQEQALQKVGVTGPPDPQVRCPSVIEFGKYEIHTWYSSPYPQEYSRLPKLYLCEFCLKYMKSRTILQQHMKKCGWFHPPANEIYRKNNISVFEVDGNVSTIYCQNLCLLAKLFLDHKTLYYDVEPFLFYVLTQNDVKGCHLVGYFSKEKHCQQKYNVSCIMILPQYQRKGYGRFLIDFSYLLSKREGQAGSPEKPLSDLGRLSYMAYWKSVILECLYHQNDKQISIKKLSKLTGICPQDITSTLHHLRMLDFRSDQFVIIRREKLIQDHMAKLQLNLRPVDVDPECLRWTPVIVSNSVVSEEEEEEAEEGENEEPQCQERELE

Consider `CCN(C)c1ccc2cc(C(=O)NS(=O)(=O)c3ccccc3Cl)oc2c1` [Example 4, N-(2-Chlorophenyl)sulfonyl-6-[ethyl(methyl)amino]benzofuran-2-carboxamide], for which the IC50 was 1410 nM in assay [1]; 2570 nM in assay [2] (Homo sapiens, MVLN); 2700 nM in assay [3]. The EC50 is over 20000 nM with MDA-MB-436 cells (setting [4]) and 3.25e-06 M in the assay with ZR-75-1 cells (Homo sapiens, ZR-75-1, 144 h).
As to `CCOc1ccccc1S(=O)(=O)NC(=O)c1cc2ccc(N(C)CC)cc2o1` [Example 5, N-(2-Ethoxyphenyl)sulfonyl-6-[ethyl(methyl)amino]benzofuran-2-carboxamide], the IC50 worked out at 495 nM in assay [1]; 520 nM in assay [2] (Homo sapiens, MVLN); 1100 nM in assay [3]. Moreover, the EC50 with MDA-MB-436 cells (setting [4]) is over 20000 nM; in the assay with ZR-75-1 cells (Homo sapiens, ZR-75-1, 144 h), 8.76e-07 M.
Take `CCOc1ccccc1S(=O)(=O)NC(=O)c1cc2ccc(N(C)c3ccccc3)cc2o1` [Example 6, N-(2-Ethoxyphenyl)sulfonyl-6-(N-methylanilino)benzofuran-2-carboxamide]: the IC50 was 4280 nM in assay [1]; over 20000 nM in assay [2] (Homo sapiens, MVLN); 1830 nM in assay [3]. Moreover, the EC50 in the assay with MDA-MB-436 cells (setting [4]) was over 20000 nM; in the assay on ZR-75-1 cells (Homo sapiens, ZR-75-1, 144 h), over 2e-05 M.
Regarding `CN(c1ccccc1)c1ccc2cc(C(=O)NS(=O)(=O)c3ccccc3)oc2c1` [Example 7], the IC50 in assay [1] is over 20000 nM; in assay [2] (Homo sapiens, MVLN), over 20000 nM; in assay [3] it was 9600 nM. The EC50 in the assay on MDA-MB-436 cells (setting [4]) was over 20000 nM; in the assay on ZR-75-1 cells (Homo sapiens, ZR-75-1, 144 h) it was over 2e-05 M.
Consider `CN(c1ccccc1)c1ccc2cc(C(=O)NS(=O)(=O)c3ccccc3Cl)oc2c1` [Example 8, N-(2-Chlorophenyl)sulfonyl-6-(N-methylanilino)benzofuran-2-carboxamide], for which the IC50 in assay [1] was 4400 nM; in assay [2] (Homo sapiens, MVLN), over 20000 nM; in assay [3] it was 5030 nM. Also, the EC50 in the assay with MDA-MB-436 cells (setting [4]) is over 20000 nM; with ZR-75-1 cells (Homo sapiens, ZR-75-1, 144 h), over 2e-05 M.
For `CNc1ccc2cc(C(=O)NS(=O)(=O)c3ccccc3-c3ccccc3)oc2c1` [Example 11, 6-(Methylamino)-N-(2-phenylphenyl)sulfonyl-benzofuran-2-carboxamide], the IC50 in assay [1] is 205 nM; in assay [2] (Homo sapiens, MVLN) it was 1930 nM; in assay [3], 123 nM. For the same compound, the EC50 is over 20000 nM in the assay with MDA-MB-436 cells (setting [4]) and 2.84e-07 M in the assay with ZR-75-1 cells (Homo sapiens, ZR-75-1, 144 h).
For `CCOc1ccccc1S(=O)(=O)NC(=O)c1cc2c(F)cc(N(C)C)cc2o1` [Example 13, 6-(Dimethylamino)-N-(2-ethoxybenzene-1-sulfonyl)-4-fluoro-1-benzofuran-2-carboxamide], in that order: 11.6 nM, 16.7 nM, 12.5 nM, over 20000 nM and 2.28e-08 M.
For `CN(C)c1ccc2cc(C(=O)NS(=O)(=O)c3ccccc3-c3cccc(Cl)c3)oc2c1` [Example 16, N-(3′-Chloro[1,1′-biphenyl]-2-sulfonyl)-6-(dimethylamino)-1-benzofuran-2-carboxamide], in that order: 50.5 nM, 126 nM, 66.3 nM, over 20000 nM and 1.55e-07 M.
For `Cc1ccccc1-c1ccccc1S(=O)(=O)NC(=O)c1cc2ccc(N(C)C)cc2o1` [Example 17, 6-(Dimethylamino)-N-(2′-methyl[1,1′-biphenyl]-2-sulfonyl)-1-benzofuran-2-carboxamide], in that order: 64.5 nM, 148 nM, 72.4 nM, over 20000 nM and 3.87e-08 M.
`CN(C)c1ccc2cc(C(=O)N[S@SP1](=O)(=O)c3cccc4ccccc34)oc2c1` [Example 20, 6-(Dimethylamino)-N-(naphthalene-1-sulfonyl)-1-benzofuran-2-carboxamide]: the IC50 in assay [1] came to 88.4 nM; in assay [2] (Homo sapiens, MVLN), 343 nM; in assay [3], 104 nM. Further, the EC50 was over 20000 nM in the assay with MDA-MB-436 cells (setting [4]) and 2.5e-07 M in the assay with ZR-75-1 cells (Homo sapiens, ZR-75-1, 144 h).
For the compound `Cc1ccc2cccc(S(=O)(=O)NC(=O)c3cc4ccc(N(C)C)cc4o3)c2n1` [Example 21, 6-(Dimethylamino)-N-(2-methylquinoline-8-sulfonyl)-1-benzofuran-2-carboxamide], the IC50 in assay [1] came out at 26.7 nM; in assay [2], 48.5 nM; in assay [3] it was 23.4 nM. Also, the figures for the EC50 in the assay with MDA-MB-436 cells and in the assay on ZR-75-1 cells were 15300 nM and 4.21e-08 M, respectively.
Consider `CN(C)c1ccc2cc(C(=O)NS(=O)(=O)c3ccccc3Cl)oc2c1` [Example 22, N-(2-Chlorobenzene-1-sulfonyl)-6-(dimethylamino)-1-benzofuran-2-carboxamide], for which the IC50 in assay [1] is 200 nM; in assay [2] (Homo sapiens, MVLN), 214 nM; in assay [3] it was 219 nM. For the same compound, the EC50 in the assay with MDA-MB-436 cells (setting [4]) is over 20000 nM; in the assay on ZR-75-1 cells (Homo sapiens, ZR-75-1, 144 h), 2.02e-07 M.
For `Cc1ccc(S(=O)(=O)NC(=O)c2cc3ccc(N(C)C)cc3o2)c(-c2ccccc2)c1` [Example 24, 6-(Dimethylamino)-N-(5-methyl[1,1′-biphenyl]-2-sulfonyl)-1-benzofuran-2-carboxamide], in that order: 49 nM, 181 nM, 31 nM, over 20000 nM and 1.33e-07 M.
For `CCOc1cccc(-c2cccc(Cl)c2)c1S(=O)(=O)NC(=O)c1cc2ccc(N(C)C)cc2o1` [Example 25, N-(3′-Chloro-3-ethoxy[1,1′-biphenyl]-2-sulfonyl)-6-(dimethylamino)-1-benzofuran-2-carboxamide], in that order: 50.6 nM, 139 nM, 31.1 nM, 18000 nM and 1.5e-07 M.
For `Cc1ccc(S(=O)(=O)NC(=O)c2cc3ccc(N(C)C)cc3o2)cc1` [Example 26, 6-(Dimethylamino)-N-(4-methylbenzene-1-sulfonyl)-1-benzofuran-2-carboxamide], in that order: 778 nM, 899 nM, 406 nM, over 20000 nM and 3.89e-07 M.
With `CN(C)c1ccc2cc(C(=O)NS(=O)(=O)C3CCOCC3)oc2c1` [Example 28, 6-(Dimethylamino)-N-(oxane-4-sulfonyl)-1-benzofuran-2-carboxamide], the IC50 in assay [1] was 2680 nM; in assay [2] (Homo sapiens, MVLN) it was over 20000 nM; in assay [3] it was 5440 nM. Moreover, the EC50 in the assay on MDA-MB-436 cells (setting [4]) is over 20000 nM; in the assay with ZR-75-1 cells (Homo sapiens, ZR-75-1, 144 h), 4.73e-06 M.
As to `CN(C)c1ccc2cc(C(=O)NS(=O)(=O)c3cc(C#N)ccn3)oc2c1` [Example 29, N-(4-Cyanopyridine-2-sulfonyl)-6-(dimethylamino)-1-benzofuran-2-carboxamide], the IC50 was 5920 nM in assay [1]; over 20000 nM in assay [2] (Homo sapiens, MVLN); 6240 nM in assay [3]. In addition, the EC50 in the assay on MDA-MB-436 cells (setting [4]) was over 20000 nM; with ZR-75-1 cells (Homo sapiens, ZR-75-1, 144 h) it was 1.88e-05 M.
With `Cc1cc(N(C)C)cc2oc(C(=O)NS(=O)(=O)c3ccccc3-c3ccccc3)cc12` [Example 35, N-([1,1′-biphenyl]-2-sulfonyl)-6-(dimethylamino)-4-methyl-1-benzofuran-2-carboxamide], the IC50 in assay [1] was determined as 654 nM; in assay [2] (Homo sapiens, MVLN) it was 14900 nM; in assay [3], 452 nM. Moreover, the EC50 with MDA-MB-436 cells (setting [4]) is over 20000 nM; in the assay on ZR-75-1 cells (Homo sapiens, ZR-75-1, 144 h) it was 6.03e-06 M.
For `CN(C)c1ccc2cc(C(=O)NS(=O)(=O)c3ccccc3C(=O)O)oc2c1` [Example 36, 2-{[6-(Dimethylamino)-1-benzofuran-2-carbonyl]sulfamoyl}benzoic acid], in that order: 169 nM, 4030 nM, 227 nM, over 20000 nM and 1.04e-05 M.
In the case of `CCN(CC)c1ccc2cc(C(=O)NS(=O)(=O)c3ccccc3-c3ccccc3)oc2c1` [Example 38, N-([1,1′-Biphenyl]-2-sulfonyl)-6-(diethylamino)-1-benzofuran-2-carboxamide], the IC50 in assay [1] was 1890 nM; in assay [2] (Homo sapiens, MVLN), 4990 nM; in assay [3], 975 nM. The EC50 is over 20000 nM in the assay on MDA-MB-436 cells (setting [4]) and 1.45e-05 M in the assay on ZR-75-1 cells (Homo sapiens, ZR-75-1, 144 h).
